{
  "source": "paper PMC8056384",
  "about": "(ACS Chemical Biology, 2021)",
  "key": {"hGALK1 [1]": {"biological_target": "T1, hGALK1 (Homo sapiens, UniProt P51570, E253A/K252A)", "T1 construct": "A hGALK1 construct, encoding full-length protein harboring the surface entropy[41] mutations K252A:E253A; His6 (N); made in house; host or cells: E. coli BL21(DE3)", "T1 sequence (P51570 whole entry K252A/E253A)": "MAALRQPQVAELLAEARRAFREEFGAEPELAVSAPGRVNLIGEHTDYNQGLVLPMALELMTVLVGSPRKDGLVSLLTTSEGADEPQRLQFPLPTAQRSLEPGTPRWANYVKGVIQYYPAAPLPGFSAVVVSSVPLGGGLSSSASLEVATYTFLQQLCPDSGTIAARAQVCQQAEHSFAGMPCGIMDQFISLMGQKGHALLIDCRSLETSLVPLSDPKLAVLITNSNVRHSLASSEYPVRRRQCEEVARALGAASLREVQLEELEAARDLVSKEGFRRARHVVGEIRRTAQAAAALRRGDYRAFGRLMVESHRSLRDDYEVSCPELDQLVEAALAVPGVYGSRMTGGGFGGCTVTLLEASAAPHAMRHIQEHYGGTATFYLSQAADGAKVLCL", "test": "Kinase-Glo luminescent hGALK1 activity assay", "type": "biochemical", "design": "Vmaxapp, substrate galactose, with ligand (+) / Kmapp, substrate galactose, with ligand (+): unit not given here", "experimental": "hGALK1 activity in vitro was determined using the Kinase-Glo luminescent kinase assay (Promega), according to the manufacturer’s protocol. […] Following a 1-h RT incubation, 10 μL of Kinase-Glo Plus detection reagent was added (final assay volume: 20 μL/well), and after a further 20 minutes RT incubation, luminescence was detected using a Pherastar FSX plate reader (BMG Labtech) containing a luminescence optics module. […] All reactions were performed in technical triplicates for two different preparations of hGALK1.\nData were plotted using GraphPad Prism software; curve fitting was performed with a nonlinear least-squares regression fit to the mixed, competitive, noncompetitive, and uncompetitive inhibition models from the GraphPad Prism enzyme kinetics–inhibition equations and the best fit selected by comparison of Akaike’s Information Criterion (AICc) probability scores and extra sum-of-squares F test P values calculated by the software."}, "hGALK1 [2]": {"biological_target": "T1, hGALK1", "test": "Amplex Red fluorescence-based hGALK1 activity assay (coupled with galactose oxidase)", "type": "biochemical", "design": "Vmaxapp, substrate ATP, with ligand (+) / Kmapp, substrate ATP, with ligand (+): unit not given here", "description": "Consequently, to confirm the mode of inhibition of the spiro-benzoxazole inhibitors with respect to ATP, we adopted the Amplex Red fluorescence-based assay[33],[34] by coupling the hGALK1 reaction with D. dendroides galactose oxidase (GAO; EC 1.1.3.9) to measure the level of galactose remaining after being depleted as a substrate for hGALK1. In this method, hydrogen peroxide generated by the oxidation of galactose by GAO is used by horseradish peroxidase to convert the nonfluorescent substrate Amplex Red into its highly fluorescent product resorufin; therefore, the resultant fluorescent signal is inversely proportional to hGALK1 enzyme activity. We optimized several parameters of this assay to allow measurement of hGALK1 activity for the first time (Figure S3; Supplementary Results).\nThe Amplex Red assay reagent contained horseradish peroxidase (EC 1.11.1.7, 0.2 U/mL), its substrate Amplex Red (10-acetyl-3,7-dihydroxyphenoxazine, 100 μM), and galactose oxidase (EC 1.1.3.9, 4 U/mL). The assay buffer used was the same as in the Kinase-Glo assay. […] Amplex Red reagent was added at a 1:1 volume to the hGALK1 reaction after 1-h incubation at RT. Fluorescence emission was measured at 585 nm, with excitation at 570 nm, after a further incubation period of 40 minutes, using a Pherastar FSX plate reader with a FI 540 590 optics module. Reactions were performed in technical triplicates for two biological replicates, and data were plotted and fitted as described for the Kinase-Glo assay except that the reaction rate, defined as total galactose consumed over the 1-h hGALK1 reaction, was determined using the following equation, where Fluorreaction = mean value of measured fluorescence of each reaction and Fluor50 = measured fluorescence with no galactose (i.e., fluorescence of 50 μM galactose): [drawing 2]"}, "[3]": {"settings": "35 µM ATP, maximum tested concentration: 1 mM T1, 15 mM fragment 3, 2 mM 11–13"}, "[4]": {"settings": "50 µM galactose, maximum tested concentration: 1 mM T1, 15 mM fragment 3, 2 mM 11–13"}},
  "data": [
    {"compound": "CS(=O)(=O)c1nccn1Cc1cscn1", "note": "[fragment 2]", "values": [
      {"measurement": "change in hGALK1 activity, strictly standardized mean difference (SSMD)", "setting": "hGALK1 [1]; 5 mM fragment", "value": "< 0.5"}
    ]},
    {"compound": "O=C(Cc1ccc(Cl)cc1)Nc1ncccn1", "note": "[fragment 3]", "values": [
      {"measurement": "mode of inhibition with respect to galactose", "setting": "hGALK1 [1]; 35 μM ATP, 0–250 μM galactose, best-fit model in GraphPad Prism", "value": "mixed"},
      {"measurement": "Kmapp, substrate galactose, with ligand (+)", "setting": "hGALK1 [1]; [3]", "value": "184.2 ± 2.1"},
      {"measurement": "Vmaxapp, substrate galactose, with ligand (+)", "setting": "hGALK1 [1]; [3]", "value": "5.1 ± 0.4"},
      {"measurement": "change in hGALK1 activity, strictly standardized mean difference (SSMD)", "setting": "hGALK1 [1]; 5 mM fragment", "value": 2.79},
      {"measurement": "reduction of hGALK1 activity", "setting": "hGALK1 [1]; 5 mM fragment, single-point", "value": "24 ± 1.6", "unit": "%"},
      {"measurement": "decrease in Vmaxapp, galactose titration", "setting": "hGALK1 [1]; fragment 0–15 mM, 35 μM ATP", "value": 5, "unit": "fold"},
      {"measurement": "increase in Kmapp, galactose titration", "setting": "hGALK1 [1]; fragment 0–15 mM, 35 μM ATP", "value": 6, "unit": "fold"},
      {"measurement": "Kmapp, substrate ATP, with ligand (+)", "setting": "hGALK1 [2]; [4]", "value": "32.1 ± 8.4"},
      {"measurement": "Vmaxapp, substrate ATP, with ligand (+)", "setting": "hGALK1 [2]; [4]", "value": "4.2 ± 0.3"},
      {"measurement": "decrease in Vmaxapp, ATP titration", "setting": "hGALK1 [2]; fragment 0–15 mM, 50 μM galactose", "value": 4, "unit": "fold"}
    ]},
    {"compound": "O=C(OCc1ccc(Cl)cc1)c1cccnc1", "note": "[fragment 4]", "values": [
      {"measurement": "change in hGALK1 activity, strictly standardized mean difference (SSMD)", "setting": "hGALK1 [1]; 5 mM fragment", "value": "< 0.5"}
    ]},
    {"compound": "O=C(NCCN1CCCC1=O)Nc1ccccc1", "note": "[fragment 5]", "values": [
      {"measurement": "change in hGALK1 activity, strictly standardized mean difference (SSMD)", "setting": "hGALK1 [1]; 5 mM fragment", "value": "< 0.5"}
    ]},
    {"compound": "Cc1ccc(C)c(OC(=O)c2ccncc2)c1", "note": "[fragment 7]", "values": [
      {"measurement": "change in hGALK1 activity, strictly standardized mean difference (SSMD)", "setting": "hGALK1 [1]; 5 mM fragment", "value": "< 0.5"}
    ]},
    {"compound": "COc1ccc(Cl)cc1C(=O)NCC(C)C", "note": "[fragment 10]", "values": [
      {"measurement": "change in hGALK1 activity, strictly standardized mean difference (SSMD)", "setting": "hGALK1 [1]; 5 mM fragment", "value": 0.80}
    ]}
  ]
}
